Laboratory results: US20250243196A1, “CITRON KINASE INHIBITORS” (The Cleveland Clinic Foundation, priority 2021, published 2025)

How the values were obtained:
Test in all cases: KinaseProfiler panel
Format in all cases: biochemical
Conditions in all cases: activity remaining
NEK2(h) = NEK2(h) (Homo sapiens (Human), UniProt P51955); set-up: dose or concentration left out as unconfirmed
MLK1(h) = MLK1(h) (Homo sapiens (Human), UniProt P80192); set-up: dose or concentration left out as unconfirmed
CK1γ1(h) = CK1γ1(h) (Homo sapiens (Human), UniProt Q9HCP0); set-up: dose or concentration left out as unconfirmed
Lck(h) activated = Lck(h) activated (Homo sapiens (Human), UniProt P06239); set-up: dose or concentration left out as unconfirmed
GCN2(h) = GCN2(h) (Homo sapiens (Human), UniProt Q9P2K8); set-up: dose or concentration left out as unconfirmed
OSR1(h) = OSR1(h) (Homo sapiens (Human), UniProt O95747); set-up: dose or concentration left out as unconfirmed
NEK7(h) = NEK7(h) (Homo sapiens (Human), UniProt Q8TDX7); set-up: dose or concentration left out as unconfirmed
TTK(h) = TTK(h) (Homo sapiens (Human), UniProt P33981); set-up: dose or concentration left out as unconfirmed
MARK4(h) = MARK4(h) (Homo sapiens (Human), UniProt Q96L34); set-up: dose or concentration left out as unconfirmed
DNA-PK(h) = DNA-PK(h) (Homo sapiens (Human), UniProt P78527); set-up: dose or concentration left out as unconfirmed
ALK2(h) = ALK2(h) (Homo sapiens (Human), UniProt Q04771); set-up: dose or concentration left out as unconfirmed
DYRK3(h) = DYRK3(h) (Homo sapiens (Human), UniProt O43781); set-up: dose or concentration left out as unconfirmed
ErbB2(h) = ErbB2(h) (Homo sapiens (Human), UniProt P04626); set-up: dose or concentration left out as unconfirmed
IKKα(h) = IKKα(h) (Homo sapiens (Human), UniProt O15111); set-up: dose or concentration left out as unconfirmed
HPK1(h) = HPK1(h) (Homo sapiens (Human), UniProt Q92918); set-up: dose or concentration left out as unconfirmed
ROCK-I(h) = ROCK-I(h) (Homo sapiens (Human), UniProt Q13464); set-up: dose or concentration left out as unconfirmed
MAP4K4(h) = MAP4K4(h) (Homo sapiens (Human), UniProt O95819); set-up: dose or concentration left out as unconfirmed
AMPKα1(h) = AMPKα1(h) (Homo sapiens (Human), UniProt Q13131); set-up: dose or concentration left out as unconfirmed
CDK3/cyclinE(h) = CDK3/cyclinE(h) (Homo sapiens (Human), UniProt Q00526); set-up: dose or concentration left out as unconfirmed
DYRK2(h) = DYRK2(h) (Homo sapiens (Human), UniProt Q92630); set-up: dose or concentration left out as unconfirmed
CK2α1(h) = CK2α1(h) (Homo sapiens (Human), UniProt P68400); set-up: dose or concentration left out as unconfirmed
MSK1(h) = MSK1(h) (Homo sapiens (Human), UniProt O75582); set-up: dose or concentration left out as unconfirmed
EphB2(h) = EphB2(h) (Homo sapiens (Human), UniProt P29323); set-up: dose or concentration left out as unconfirmed
RIPK1(h) = RIPK1(h) (Homo sapiens (Human), UniProt Q13546); set-up: dose or concentration left out as unconfirmed
PI3 Kinase (p120g)(h) = PI3 Kinase (p120g)(h) (Homo sapiens (Human), UniProt P48736)
LATS2(h) = LATS2(h) (Homo sapiens (Human), UniProt Q9NRM7); set-up: dose or concentration left out as unconfirmed
NEK11(h) = NEK11(h) (Homo sapiens (Human), UniProt Q8NG66); set-up: dose or concentration left out as unconfirmed
CHK2(h) = CHK2(h) (Homo sapiens (Human), UniProt O96017); set-up: dose or concentration left out as unconfirmed
NIM1(h) = NIM1(h) (Homo sapiens (Human), UniProt Q8IY84); set-up: dose or concentration left out as unconfirmed
Snk(h) = Snk(h) (Homo sapiens (Human), UniProt Q9NYY3); set-up: dose or concentration left out as unconfirmed
Fgr(h) = Fgr(h) (Homo sapiens (Human), UniProt P09769); set-up: dose or concentration left out as unconfirmed
GRK2(h) = GRK2(h) (Homo sapiens (Human), UniProt P25098); set-up: dose or concentration left out as unconfirmed
EGFR(h) = EGFR(h) (Homo sapiens (Human), UniProt P00533); set-up: dose or concentration left out as unconfirmed

Chain of PI3 Kinase (p120g)(h) (P48736 whole entry): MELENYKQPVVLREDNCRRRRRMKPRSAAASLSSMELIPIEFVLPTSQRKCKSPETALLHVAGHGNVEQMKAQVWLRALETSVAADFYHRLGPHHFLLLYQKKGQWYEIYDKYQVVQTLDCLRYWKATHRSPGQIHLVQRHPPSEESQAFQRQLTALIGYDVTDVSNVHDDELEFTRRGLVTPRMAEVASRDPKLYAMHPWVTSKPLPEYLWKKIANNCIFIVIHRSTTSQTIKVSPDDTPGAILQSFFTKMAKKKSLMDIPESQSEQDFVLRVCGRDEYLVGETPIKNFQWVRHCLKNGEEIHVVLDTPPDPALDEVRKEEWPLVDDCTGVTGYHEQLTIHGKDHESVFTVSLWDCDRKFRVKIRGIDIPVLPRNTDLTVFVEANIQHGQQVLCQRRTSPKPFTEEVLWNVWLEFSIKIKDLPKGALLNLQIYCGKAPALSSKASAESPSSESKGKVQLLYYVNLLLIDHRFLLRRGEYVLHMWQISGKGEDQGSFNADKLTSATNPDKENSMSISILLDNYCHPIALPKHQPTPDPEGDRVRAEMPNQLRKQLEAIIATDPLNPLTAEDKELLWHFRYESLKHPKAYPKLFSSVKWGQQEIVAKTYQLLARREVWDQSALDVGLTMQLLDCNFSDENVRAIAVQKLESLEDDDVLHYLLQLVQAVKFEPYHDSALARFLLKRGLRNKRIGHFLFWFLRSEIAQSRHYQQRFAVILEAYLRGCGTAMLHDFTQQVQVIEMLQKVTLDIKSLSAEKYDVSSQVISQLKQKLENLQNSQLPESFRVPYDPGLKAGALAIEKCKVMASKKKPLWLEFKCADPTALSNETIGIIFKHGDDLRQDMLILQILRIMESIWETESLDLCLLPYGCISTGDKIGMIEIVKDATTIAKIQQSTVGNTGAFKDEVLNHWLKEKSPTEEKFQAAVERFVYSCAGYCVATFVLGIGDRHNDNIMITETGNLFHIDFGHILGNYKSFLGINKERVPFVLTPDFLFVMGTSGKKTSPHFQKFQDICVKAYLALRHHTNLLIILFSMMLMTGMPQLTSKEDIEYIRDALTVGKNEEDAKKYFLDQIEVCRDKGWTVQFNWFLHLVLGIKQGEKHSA
Chain of DYRK3(h) (O43781 whole entry): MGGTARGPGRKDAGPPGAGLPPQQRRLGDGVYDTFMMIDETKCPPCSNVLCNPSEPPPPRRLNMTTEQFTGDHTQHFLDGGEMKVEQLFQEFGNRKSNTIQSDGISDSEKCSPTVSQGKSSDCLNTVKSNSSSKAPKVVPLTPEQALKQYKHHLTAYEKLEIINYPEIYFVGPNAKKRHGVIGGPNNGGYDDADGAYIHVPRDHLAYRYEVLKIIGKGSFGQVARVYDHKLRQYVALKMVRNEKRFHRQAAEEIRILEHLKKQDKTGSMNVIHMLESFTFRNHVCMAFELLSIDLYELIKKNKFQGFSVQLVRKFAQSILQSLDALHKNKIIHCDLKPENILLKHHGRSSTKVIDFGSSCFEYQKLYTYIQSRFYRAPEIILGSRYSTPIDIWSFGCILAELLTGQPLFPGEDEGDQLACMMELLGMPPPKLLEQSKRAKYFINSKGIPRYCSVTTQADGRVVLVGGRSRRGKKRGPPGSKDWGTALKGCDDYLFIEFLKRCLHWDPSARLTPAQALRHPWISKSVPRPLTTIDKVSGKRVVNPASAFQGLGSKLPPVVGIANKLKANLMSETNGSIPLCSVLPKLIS
Chain of IKKα(h) (O15111 whole entry): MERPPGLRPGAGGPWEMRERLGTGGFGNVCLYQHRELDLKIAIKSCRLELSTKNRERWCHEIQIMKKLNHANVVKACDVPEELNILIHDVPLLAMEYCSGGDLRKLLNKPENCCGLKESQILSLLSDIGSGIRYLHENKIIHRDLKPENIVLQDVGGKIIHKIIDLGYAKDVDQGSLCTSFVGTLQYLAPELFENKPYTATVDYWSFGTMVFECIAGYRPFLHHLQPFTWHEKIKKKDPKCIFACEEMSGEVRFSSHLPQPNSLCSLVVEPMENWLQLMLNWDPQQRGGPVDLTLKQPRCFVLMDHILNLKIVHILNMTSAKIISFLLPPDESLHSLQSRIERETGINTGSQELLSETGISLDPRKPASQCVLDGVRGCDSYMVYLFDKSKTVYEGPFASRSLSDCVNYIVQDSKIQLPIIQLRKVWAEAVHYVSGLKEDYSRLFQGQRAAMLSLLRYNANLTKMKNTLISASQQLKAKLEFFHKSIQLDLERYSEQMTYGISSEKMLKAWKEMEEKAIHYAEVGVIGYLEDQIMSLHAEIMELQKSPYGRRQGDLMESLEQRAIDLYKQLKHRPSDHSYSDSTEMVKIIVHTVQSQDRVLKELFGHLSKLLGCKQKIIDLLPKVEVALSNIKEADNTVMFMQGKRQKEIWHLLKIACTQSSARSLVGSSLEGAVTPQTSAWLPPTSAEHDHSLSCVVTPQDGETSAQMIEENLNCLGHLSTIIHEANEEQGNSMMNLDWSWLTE
Chain of OSR1(h) (O95747 whole entry): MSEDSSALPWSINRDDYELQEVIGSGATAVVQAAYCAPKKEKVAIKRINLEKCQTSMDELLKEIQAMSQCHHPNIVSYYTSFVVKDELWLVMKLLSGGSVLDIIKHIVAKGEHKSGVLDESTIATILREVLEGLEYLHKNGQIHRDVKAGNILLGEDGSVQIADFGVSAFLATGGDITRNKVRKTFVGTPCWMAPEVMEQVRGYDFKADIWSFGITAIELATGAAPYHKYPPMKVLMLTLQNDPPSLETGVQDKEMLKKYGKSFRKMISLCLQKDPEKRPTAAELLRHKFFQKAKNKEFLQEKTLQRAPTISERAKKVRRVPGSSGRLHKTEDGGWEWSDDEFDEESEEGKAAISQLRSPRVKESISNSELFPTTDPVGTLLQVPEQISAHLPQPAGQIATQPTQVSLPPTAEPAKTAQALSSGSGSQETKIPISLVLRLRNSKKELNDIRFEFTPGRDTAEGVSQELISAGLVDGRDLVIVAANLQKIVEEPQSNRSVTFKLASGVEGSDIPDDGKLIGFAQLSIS
Chain of EphB2(h) (P29323 19-1055): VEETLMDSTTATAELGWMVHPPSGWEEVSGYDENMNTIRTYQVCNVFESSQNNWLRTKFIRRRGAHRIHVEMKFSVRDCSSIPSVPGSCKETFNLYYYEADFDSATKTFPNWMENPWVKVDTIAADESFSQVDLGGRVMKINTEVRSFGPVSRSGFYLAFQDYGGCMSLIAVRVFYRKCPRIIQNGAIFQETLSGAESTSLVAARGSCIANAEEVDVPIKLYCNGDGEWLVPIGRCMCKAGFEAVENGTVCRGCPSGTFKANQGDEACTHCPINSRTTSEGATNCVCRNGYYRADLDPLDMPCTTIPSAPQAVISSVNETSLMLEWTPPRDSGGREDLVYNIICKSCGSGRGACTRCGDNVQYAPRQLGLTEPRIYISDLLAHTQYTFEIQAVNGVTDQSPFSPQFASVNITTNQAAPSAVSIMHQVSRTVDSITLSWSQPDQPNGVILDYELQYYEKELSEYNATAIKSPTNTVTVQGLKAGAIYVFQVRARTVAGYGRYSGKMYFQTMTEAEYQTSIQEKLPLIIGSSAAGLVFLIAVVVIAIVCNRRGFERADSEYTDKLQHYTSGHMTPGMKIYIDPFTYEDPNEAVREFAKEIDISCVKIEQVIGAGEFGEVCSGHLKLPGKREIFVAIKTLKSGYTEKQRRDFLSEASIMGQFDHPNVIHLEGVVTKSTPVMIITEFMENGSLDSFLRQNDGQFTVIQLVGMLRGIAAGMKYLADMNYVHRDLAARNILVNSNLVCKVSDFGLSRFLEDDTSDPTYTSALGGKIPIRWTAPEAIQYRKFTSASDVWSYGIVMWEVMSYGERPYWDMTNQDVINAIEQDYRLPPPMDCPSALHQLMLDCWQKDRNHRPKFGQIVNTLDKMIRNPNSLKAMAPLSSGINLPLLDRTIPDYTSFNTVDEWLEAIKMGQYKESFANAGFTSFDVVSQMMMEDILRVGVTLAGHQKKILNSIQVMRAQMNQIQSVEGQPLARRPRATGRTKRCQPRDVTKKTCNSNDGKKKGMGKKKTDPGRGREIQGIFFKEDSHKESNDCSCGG
Chain of MARK4(h) (Q96L34 whole entry): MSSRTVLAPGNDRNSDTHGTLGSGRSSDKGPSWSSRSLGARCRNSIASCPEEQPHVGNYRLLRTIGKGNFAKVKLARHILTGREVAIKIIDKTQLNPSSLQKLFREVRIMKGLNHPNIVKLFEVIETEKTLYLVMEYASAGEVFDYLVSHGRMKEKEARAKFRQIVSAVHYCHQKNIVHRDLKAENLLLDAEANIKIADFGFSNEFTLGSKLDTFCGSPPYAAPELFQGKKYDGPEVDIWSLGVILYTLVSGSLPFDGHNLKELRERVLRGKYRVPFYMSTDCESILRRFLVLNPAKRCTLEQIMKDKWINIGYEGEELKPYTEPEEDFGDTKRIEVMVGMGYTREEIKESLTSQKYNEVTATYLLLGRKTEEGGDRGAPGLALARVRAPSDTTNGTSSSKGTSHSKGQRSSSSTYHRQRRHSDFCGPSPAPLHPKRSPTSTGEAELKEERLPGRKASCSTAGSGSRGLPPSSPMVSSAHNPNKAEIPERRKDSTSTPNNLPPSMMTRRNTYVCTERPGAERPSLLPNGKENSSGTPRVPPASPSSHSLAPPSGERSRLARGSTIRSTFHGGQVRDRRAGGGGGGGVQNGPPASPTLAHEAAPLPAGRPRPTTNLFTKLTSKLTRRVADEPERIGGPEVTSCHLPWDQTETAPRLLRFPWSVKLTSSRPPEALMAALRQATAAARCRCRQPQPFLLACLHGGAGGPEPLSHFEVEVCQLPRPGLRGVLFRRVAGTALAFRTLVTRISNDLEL
Chain of NEK7(h) (Q8TDX7 whole entry): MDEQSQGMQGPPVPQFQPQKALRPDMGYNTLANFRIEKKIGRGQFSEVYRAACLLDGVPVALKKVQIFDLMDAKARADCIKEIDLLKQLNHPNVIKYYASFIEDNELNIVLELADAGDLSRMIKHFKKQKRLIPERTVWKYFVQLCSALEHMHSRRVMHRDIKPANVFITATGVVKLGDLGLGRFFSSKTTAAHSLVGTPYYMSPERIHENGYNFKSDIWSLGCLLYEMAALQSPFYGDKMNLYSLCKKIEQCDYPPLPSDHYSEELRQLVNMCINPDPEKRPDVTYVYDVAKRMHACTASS

For `Cc1cc2c(-c3ccc(NC(=O)[C@H](N)CC(C)(C)C)cc3C)ccnc2[nH]1` [Compound F-90, (2R)-2-Amino-4,4-dimethyl-N-[3-methyl-4-(2-methyl-1H-pyrrolo[2,3-b]pyridin-4-yl)phenyl]pentanamide], which “% Activity” value (NEK2(h)) is on record?
The value was 118%.

What about the “% Activity” value (MLK1(h)) of the same compound?
The value was 103%.

And the “% Activity” value (CK1γ1(h))?
Its value is 101%.

And the “% Activity” value (Lck(h) activated)?
The value was 119%.

What about the “% Activity” value (GCN2(h)) of the same compound?
Its value is 101%.

And the “% Activity” value (OSR1(h))?
The value was 80%.

What about the “% Activity” value (NEK7(h)) of the same compound?
Its value is 88%.

What about the “% Activity” value (TTK(h)) of the same compound?
The value was 102%.

And the “% Activity” value (MARK4(h))?
The value was 92%.

And the “% Activity” value (DNA-PK(h))?
The value was 107%.

What about the “% Activity” value (ALK2(h)) of the same compound?
The value was 122%.

What about the “% Activity” value (DYRK3(h)) of the same compound?
Its value is 99%.

And the “% Activity” value (ErbB2(h))?
The value was 97%.

What about the “% Activity” value (IKKα(h)) of the same compound?
The value was 98%.

What about the “% Activity” value (HPK1(h)) of the same compound?
The value was 73%.

What about the “% Activity” value (ROCK-I(h)) of the same compound?
Its value is 96%.

What about the “% Activity” value (MAP4K4(h)) of the same compound?
Its value is 101%.

And the “% Activity” value (AMPKα1(h))?
The value was 120%.

And the “% Activity” value (CDK3/cyclinE(h))?
Its value is 102%.

And the “% Activity” value (DYRK2(h))?
The value was 101%.

And the “% Activity” value (CK2α1(h))?
The value was 112%.

What about the “% Activity” value (MSK1(h)) of the same compound?
Its value is 111%.

What about the “% Activity” value (EphB2(h)) of the same compound?
Its value is 96%.

And the “% Activity” value (RIPK1(h))?
The value was 84%.

What about the “% Activity” value (PI3 Kinase (p120g)(h)) of the same compound?
Its value is 105%.

And the “% Activity” value (LATS2(h))?
The value was 102%.

What about the “% Activity” value (NEK11(h)) of the same compound?
Its value is 97%.

And the “% Activity” value (CHK2(h))?
Its value is 95%.

What about the “% Activity” value (NIM1(h)) of the same compound?
Its value is 112%.

And the “% Activity” value (Snk(h))?
Its value is 94%.

And the “% Activity” value (Fgr(h))?
Its value is 97%.

And the “% Activity” value (GRK2(h))?
Its value is 95%.

And the “% Activity” value (EGFR(h))?
Its value is 107%.
